Assay results reported in patent publication US20250049741A1, “COMPOSITION FOR PREVENTING OR TREATING ALZHEIMER'S DISEASE COMPRISING PHOSPHOLIPASE C ACTIVATOR AS AN ACTIVE INGREDIENT” (Korea University Research and Business Foundation, priority 2021, published 2025).

Assays:
[1] = system: CA1 PCs in rat hippocampal slices; test: Ex vivo eCB / S-eCB mobilization protocol: eIPSC amplitudes by whole-cell voltage-clamp; assay type: cell-based, Sprague-Dawley rats; details: m-3M3FBS 30 μM
Source text: To test the acute effect of AβO on hippocampal S-eCB mobilization, hippocampal slices from Sprague-Dawley rats (SD, 2 to 3 weeks old, DaeHan Biolink, Co., Ltd., Korea) were used. Male and female rats were used in all in vitro experiments. To test the chronic effect of AβO on hippocampus-dependent memory impairments caused by amyloidosis, the 5XFAD mouse model (6 to 7 months old, #34840-JAX, Jackson Laboratory, USA), which is a mouse model of Alzheimer's disease that mimics AβO depositions, was used. C57BL/6 mice (6 to 7 months old, KOATECH, Korea) were used as wild type (WT) control mice for 5XFAD mice. Male 5XFAD and C57BL/6 mice were used for all in vivo behavioral experiments. The 5XFAD mouse genotypes were identified by polymerase chain reaction (PCR) using DNA extracted from the tails of the mice. All animal-related procedures followed the guidelines of the Institutional Animal Care and Use Committee of Korea University (guidelines for SD rats: KUIACUC-2017-103, guidelines for C57BL/6 and 5XFAD mice: KUIACUC-2019-0068).
(§1) Soluble AβO was prepared according to a previous study (BMC Biol. 2020; 18(1):7). Specifically, Aβ1-42 (Aβ) and a scrambled form of Aβ as a control peptide were purchased in powder form. Aβ and scrambled Aβ were dissolved for monomerization in 1,1,1,3,3,3-hexafluoro-2-propanol (HFIP, Sigma Aldrich, USA) at a final concentration of 1 mM, and the solution was incubated for 90 minutes. After the HFIP was evaporated, the remaining thin and clear film of Aβ or scrambled Aβ was dissolved in dimethyl sulfoxide (DMSO, Sigma Aldrich, USA) to prepare 5 mM Aβ or scrambled Aβ stocks, which were aliquoted and frozen at −20° C. Aβ or scrambled Aβ stocks were thawed and diluted to 100 μM in artificial cerebrospinal fluid (ACSF). Thereafter, Aβ or scrambled Aβ stocks were incubated for oligomerization for 18 hours. The final AβO or scrambled AβO stock solution was diluted to a final concentration of 200 nM in 31.2 ml of ACSF, and rat hippocampal slices were treated with the stock solution for 20 minutes in a recovery chamber before measurement of brain signals. In control experiments for normal brain conditions using a vehicle, rat hippocampal slices were treated with 0.004% DMSO in ACSF.
(§2) The brains of SD rats were isolated following decapitation under isoflurane-induced anesthesia and transferred into ice-cold ACSF containing 126 mM NaCl, […], 1.25 mM NaH2PO4, 2 mM MgSO4, 2 mM CaCl2), 25 mM NaHCO3, and 10 mM glucose (pH 7.2 to 7.4). The ACSF was continuously oxygenated with 95% O2/5% CO2. Horizontal hippocampal slices (350 μm thickness) were obtained using a vibratome (VT1000S, Leica Biosystems, Germany) and immediately incubated at room temperature in a submerged chamber perfused with oxygenated ACSF for at least 1 hour.
To quantify eCB mobilization, the changes in eCB mobilization-induced Schaffer collateral (SC) nerve bundle stimulation-evoked inhibitory postsynaptic current (eIPSC) amplitudes were measured in CA1 PCs through the whole-cell voltage-clamp technique. The whole-cell voltage-clamp technique in CA1 PCs was performed using a MultiClamp 700B amplifier (Molecular Devices, USA) under an infrared differential interference contrast video microscope (BW51W, Olympus, Japan), using a borosilicate electrode (tip resistance: 4 to 8 MΩ) that was filled with an intracellular solution containing 145 mM CsCl, 10 mM HEPES, 2 mM EGTA, 4 mM QX-314, 4 mM Mg-ATP, 0.4 mM […], pH 7.2 to 7.3, and 270 to 280 mOsm/L. To record eIPSCs in the CA1 PCs, a stimulating electrode (A-M Systems, USA) was placed in a stratum radiatum to stimulate the SC pathway that carries CA3 PC axons. Electrical stimulation pulses of 200 to 400 μA amplitudes (20 to 40 μs) were generated using a constant current stimulator (model DS3, Digitimer Ltd., UK). eIPSCs were recorded in CA PCs every 1 second while maintaining the membrane potential at −70 mV.

[2] = system: hippocampal CA3-CA1 excitatory synapses; test: S-eCB mobilization induced spike timing-dependent potentiation (tLTP) protocol, EPSP slope; assay type: cell-based, Sprague-Dawley rats; details: m-3M3FBS 30 μM; AβO-treated rat hippocampal slices; similar to level in DMSO-treated slices
Procedure: as §1, §2

For `Cc1cc(C)c(S(=O)(=O)Nc2cccc(C(F)(F)F)c2)c(C)c1` [m-3M3FBS], the “synergistic enhancement of the suppression of eIPSC amplitudes (S-eCB mobilization) in AβO-treated slices” value ([1]; AβO-treated rat hippocampal slices) was “completely recovered”, the “suppression of eIPSC amplitudes, recordings in DMSO-treated and scrambled AβO-treated slices” value ([1]; DMSO-treated and scrambled AβO-treated rat hippocampal slices) was “not significantly different” and the “tLTP in AβO-treated slices” value [2] was “completely recovered”.
